Laboratory results from article PMC10762078, “Role of UPF1-LIN28A interaction during early differentiation of pluripotent stem cells” (Nature Communications, 2024).
Ends that are not written are not given here.

Tests used:
[1] = tested on: let-7a, let-7g, miR-16-5p and their targets in CHA15 cells; test: RT-qPCR of mature LIN28A-regulated miRNAs and CDF of let-7-5p / miR-16-5p target mRNAs (Supplementary Fig. 6f); assay type: cell-based, human; parameters: key to let-7a level (RT-qPCR): relative level normalised to U6 snRNA; settings: for let-7a level (RT-qPCR): Fig. s6f, dot plots, CHA15 cells
Experimental: cDNA was synthesised using RevertAid Reverse Transcriptase (Thermo Fisher Scientific, EP0441) with synthesised random hexamer (Macrogen) for total RNA or stem-loop primers for miRNA. For RT-qPCR reactions, the SensiFAST SYBR No-ROX kit (Meridian Bioscience) was used according to the manufacturer’s protocol. All data analysis and visualisation were conducted using R 3.6.1 [www.r-project.org] or GraphPad Prism 10. RT primers for miRNA and RT-qPCR primer sequences are provided in Supplementary Data 6.
Genes regulated by miRNA let-7-5p and miR-16-5p were determined by TargetScanHuman. Among miRNA targets sorted by cumulative weighted context++ score (CWCS)[57], the 100 top genes were selected and analysed using CDF. […]
Scatter
(bottom panel), respectively. f Levels of m ature endogenous m iRNAs in CHA15 cells, which were regulated by LIN28A, were assessed using RT -qPCR. Cum ulative f raction of log2 fold change in the expression of genes regulated by let-7-5p and m iR-16- 5p was shown as CDF graphs. T he relative level of m RNA was norm alised to that of U6 snRNA in (c, d, and f). K–S tests were used for e and f. Unpaired Student’s t-test was used for c , d, and f . * p < 0.05, ** p < 0.01, *** p < 0.001. Exact p -values were provided in Source data. Data are presented as m ean values ± SEM. All statistical test used were two- sided. T he m inim um num ber of independent biological replicate experim ents was a and e n = 2, b–d and f n = 3. T he experim ents were conducted three tim es, each iteration producing consistent results.

CHA15 cells = test: RT-qPCR of indicated transcripts (NMD targets, pluripotency markers) in CPP-peptide-treated CHA15 cells (Supplementary Fig. 6d); assay type: cell-based, human; settings: Fig. s6d; for DLK1 mRNA level, mean / FRZB mRNA level, mean / GLI2 mRNA level, mean / MAPK7 mRNA level, mean / NANOG mRNA level, mean / NNAT mRNA level, mean / PDZD4 mRNA level, mean / POU5F1 mRNA level, mean / SERPINB9 mRNA level, mean / SIX3 mRNA level, mean / SLC7A5 mRNA level, mean / SNAP25 mRNA level, mean / SOX2 mRNA level, mean / TRMT61A mRNA level, mean / WLS mRNA level, mean: mean of 3 replicates
Experimental: For CPP-conjugated peptide delivery, HeLa, 293T, and PA-1 cells were incubated with CPP-conjugated peptides or CPP-FITC at 2 μM in DMEM with 10% FBS for 12 h a day before cell harvest. hPSCs were treated with CPP-conjugated peptides at 10 μM in mTeSR Plus Medium, and the peptide-containing medium was changed every day over 10 days. The ROCK inhibitor (Tocris Bioscience, Y-27632) treated-hPSCs were dissociated into single cells using Accutase (Merck, SCR005) and differentiated into ectoderm, mesoderm, and endoderm using the STEMdiff Trilineage Differentiation Kit ([…] Technologies, 05230) following the manufacturer’s protocol. Differentiated cells treated with CPP-conjugated peptides were analysed at 0, 3, and 5 days for ectoderm and endoderm, and at 0, 3, and 4 days for mesoderm. […]
cDNA was synthesised using RevertAid Reverse Transcriptase (Thermo Fisher Scientific, EP0441) with synthesised random hexamer (Macrogen) for total RNA or stem-loop primers for miRNA. For RT-qPCR reactions, the SensiFAST SYBR No-ROX kit (Meridian Bioscience) was used according to the manufacturer’s protocol. All data analysis and visualisation were conducted using R 3.6.1 [www.r-project.org] or GraphPad Prism 10. RT primers for miRNA and RT-qPCR primer sequences are provided in Supplementary Data 6. […]
Scale bars, 100 μm . d (Corresponding to Fig. 6d) RT -qPCR was perform ed to evaluate the level of indicated transcripts upon the indicated peptide treatm ent in CHA15 cells. e T ranscriptom e analysis was perf orm ed using signif icantly changed transcripts (p < 0.05) f rom siLIN28A or siControl in the indicated CPP-peptide treated CHA15 cells. […]
5p and m iR-16- 5p was shown as CDF graphs. T he relative level of m RNA was norm alised to that of U6 snRNA in (c, d, and f). K–S tests were used for e and f. Unpaired Student’s t-test was used for c , d, and f . * p < 0.05, ** p < 0.01, *** p < 0.001. Exact p -values were provided in Source data. Data are presented as m ean values ± SEM. All statistical test used were two- sided. T he m inim um num ber of independent biological replicate experim ents was a and e n = 2, b–d and f n = 3. T he experim ents were conducted three tim es, each iteration producing consistent results.

[2] = unpaired t test, two-tailed, df=4

| Substance | DLK1 mRNA level, mean (CHA15 cells) | FRZB mRNA level, mean (CHA15 cells) | GLI2 mRNA level, mean (CHA15 cells) | MAPK7 mRNA level, mean (CHA15 cells) | NANOG mRNA level, mean (CHA15 cells) | NNAT mRNA level, mean (CHA15 cells) | PDZD4 mRNA level, mean (CHA15 cells) | POU5F1 mRNA level, mean (CHA15 cells) | SERPINB9 mRNA level, mean (CHA15 cells) | SIX3 mRNA level, mean (CHA15 cells) | SLC7A5 mRNA level, mean (CHA15 cells) | SNAP25 mRNA level, mean (CHA15 cells) | SOX2 mRNA level, mean (CHA15 cells) | TRMT61A mRNA level, mean (CHA15 cells) | WLS mRNA level, mean (CHA15 cells) | FRZB, difference between means ± SEM vs. P1 (CHA15 cells; [2]) | GLI2, difference between means ± SEM vs. P1 (CHA15 cells; [2]) | let-7a level (RT-qPCR) ([1]; replicate 1) | let-7a level (RT-qPCR) ([1]; replicate 2) | let-7a level (RT-qPCR) ([1]; replicate 3) | other results |
| --- | --- | --- | --- | --- | --- | --- | --- | --- | --- | --- | --- | --- | --- | --- | --- | --- | --- | --- | --- | --- | --- |
| KKKWCRKKKSSADEKRYRALKRTAERELLMNA [CPP-P8, CPP conjugated to P8] | – | – | – | – | – | – | – | – | – | – | – | – | – | – | – | – | – | – | – | – | LIN28A-regulating miRNAs and their target mRNAs ([1]; CHA15): did not alter the expression of LIN28A-regulating miRNAs and their target mRNAs |
| KKKWCRKKKSSADEKRYRALKRTAERELLMNA [P8] | 56.31 | 8.725 | 0.6516 | 0.7487 | 0.4762 | 3.136 | 0.2348 | 0.5449 | 0.7287 | 16.62 | 0.3065 | 0.3657 | 1.107 | 0.5794 | 7.117 | 7.724 ± 0.7174 | -0.3484 ± 0.08883 | 0.9027 | 0.8569 | 0.8754 | DLK1, difference between means ± SEM vs. P1 (CHA15 cells; [2]): 55.31 ± 2.539; MAPK7, difference between means ± SEM vs. P1 (CHA15 cells; [2]): -0.2513 ± 0.07831; NANOG, difference between means ± SEM vs. P1 (CHA15 cells; [2]): -0.5239 ± 0.0638; NNAT, difference between means ± SEM vs. P1 (CHA15 cells; [2]): 2.136 ± 0.5570; PDZD4, difference between means ± SEM vs. P1 (CHA15 cells; [2]): -0.7652 ± 0.01959; POU5F1, difference between means ± SEM vs. P1 (CHA15 cells; [2]): -0.4552 ± 0.05944; SERPINB9, difference between means ± SEM vs. P1 (CHA15 cells; [2]): -0.2711 ± 0.04259; SIX3, difference between means ± SEM vs. P1 (CHA15 cells; [2]): 15.62 ± 1.865; SLC7A5, difference between means ± SEM vs. P1 (CHA15 cells; [2]): -0.6935 ± 0.02913; SNAP25, difference between means ± SEM vs. P1 (CHA15 cells; [2]): -0.6344 ± 0.08552; SOX2, difference between means ± SEM vs. P1 (CHA15 cells; [2]): 0.1072 ± 0.1176; TRMT61A, difference between means ± SEM vs. P1 (CHA15 cells; [2]): -0.4206 ± 0.05922; WLS, difference between means ± SEM vs. P1 (CHA15 cells; [2]): 6.117 ± 0.3119 |
| N-MPELQKLQQLKDE-C [P2, peptide derived from the UPF1 (419–700) domain] | – | – | – | – | – | 0.9363 | – | – | 0.9791 | – | – | – | – | – | – | -0.02698 ± 0.06622 | -0.05239 ± 0.08994 | 0.9342 | 0.9709 | 0.9188 | MAPK7, difference between means ± SEM vs. P1 (CHA15 cells; [2]): 0.03902 ± 0.06368; NNAT, difference between means ± SEM vs. P1 (CHA15 cells; [2]): -0.06363 ± 0.1386; PDZD4, difference between means ± SEM vs. P1 (CHA15 cells; [2]): 0.05466 ± 0.04504; SERPINB9, difference between means ± SEM vs. P1 (CHA15 cells; [2]): -0.02067 ± 0.08291; SIX3, difference between means ± SEM vs. P1 (CHA15 cells; [2]): 0.1242 ± 0.09936; SLC7A5, difference between means ± SEM vs. P1 (CHA15 cells; [2]): 0.1166 ± 0.05272; SNAP25, difference between means ± SEM vs. P1 (CHA15 cells; [2]): 0.01594 ± 0.05751; SOX2, difference between means ± SEM vs. P1 (CHA15 cells; [2]): -0.1171 ± 0.06917; TRMT61A, difference between means ± SEM vs. P1 (CHA15 cells; [2]): 0.0576 ± 0.08417; WLS, difference between means ± SEM vs. P1 (CHA15 cells; [2]): -0.1429 ± 0.08376 |
| N-QKLDQKELQLEPM-C [P1, reference compound] | 1 | 1 | 1 | 1 | 1 | – | 1 | 1 | – | 1 | 1 | 1 | 1 | 1 | 1 | – | – | 0.8272 | 1.208 | 0.9649 | – |
